How the values were obtained:
B. subtilis 168 [1] = assay: Bliss interaction score (quartile over a dose matrix) (fitness difference); higher = more antagonism (negative = synergy)
How it was run: (§1)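 Quartiles summarise the Bliss score over technical, biological and donor/recipient replicates, where the score is observed minus expected fitness under a product model. Expected fitness uses single-drug values inferred from combination data. Fitness is OD595 at entry into stationary phase over the plate's robust no-drug mean, capped at 1.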

S. aureus Newman = assay: as above
How it was run: as §1

S. pneumoniae D39V [2] = assay: as above
How it was run: as §1

S. aureus DSM 20231 = assay: as above
How it was run: as §1

B. subtilis 168 [3] = assay: fitness (endpoint OD595 vs no drug) (fraction); higher = more growth; conditions: main component drawn
How it was run: (§2)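 Growth medium was TSB, LB Lennox or CY, and plates were kept at 37 °C. Inoculation was at OD595 0.01 in 384-well plates, at 30 µl per well or 55 µl for S. pneumoniae. OD595 was monitored every 30 min for 14 h and background-subtracted using the first reading. Fitness is the optical density on entering stationary phase divided by the robust mean of no-drug controls, with values capped at 1.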

S. pneumoniae D39V [4] = assay: as above
How it was run: as §2
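Throughout, for Bliss interaction score (quartile over a dose matrix): first quartile when negative (synergy) and third quartile when positive (antagonism).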

CNC(C)C1CCC(N)C(OC2C(N)CC(N)C(OC3OCC(C)(O)C(NC)C3O)C2O)O1 (configuration not stated) [Gentamicin] + CO[C@@H]1[C@@H](OC(N)=O)[C@@H](O)[C@H](Oc2ccc3c(O)c(NC(=O)c4ccc(O)c(CC=C(C)C)c4)c(=O)oc3c2C)OC1(C)C [Novobiocin]
main component drawn
Conditions	Bliss interaction score
B. subtilis 168 [1]	0.137
S. aureus DSM 20231	-0.0708
S. aureus Newman	0.0684
S. pneumoniae D39V [2]	0.0522

fitness, B. subtilis 168 [3]
Conditions	first compound 0.0625 µg/mL	first compound 0.125 µg/mL	first compound 0.25 µg/mL
partner 0.0125 µg/mL	0.915	–	0.0845
partner 0.025 µg/mL	0.938	0.692	0.0329
partner 0.05 µg/mL	0.998	0.705	–

fitness, B. subtilis 168 [3], one replicate
Conditions	partner 0.1 µg/mL	partner 0.125 µg/mL	partner 0.2 µg/mL	partner 0.25 µg/mL	partner 0.5 µg/mL
first compound 0.0625 µg/mL	≥ 1	0.907	≥ 1	0.987	0.515
first compound 0.125 µg/mL	0.946	0.501	0.978	0.302	0.111
first compound 0.25 µg/mL	0.152	0.056	0.476	0.0399	0.0406

Clc1ccc(COC(Cn2ccnc2)c2ccc(Cl)cc2Cl)c(Cl)c1 (configuration not stated) [Miconazole] + C[n+]1ccc(-c2cc[n+](C)cc2)cc1 [Paraquat]
Conditions	Bliss interaction score
B. subtilis 168 [1]	0.0318
S. aureus DSM 20231	0.0436
S. aureus Newman	-0.0378
S. pneumoniae D39V [2]	-0.0527

fitness, S. pneumoniae D39V [4]
Conditions	first compound 1.073 µg/mL	first compound 2.145 µg/mL	first compound 4.29 µg/mL
partner 1.5 µg/mL	≥ 1	0.999	0.925
partner 3 µg/mL	≥ 1	0.987	0.908
partner 6 µg/mL	0.979	0.983	0.824

fitness, S. pneumoniae D39V [4], one replicate
Conditions	first compound 1.25 µg/mL	first compound 2.5 µg/mL	first compound 5 µg/mL
partner 1.5 µg/mL	≥ 1	0.983	0.944
partner 3 µg/mL	≥ 1	≥ 1	0.997
partner 6 µg/mL	0.957	0.932	0.885

Clc1ccc(COC(Cn2ccnc2)c2ccc(Cl)cc2Cl)c(Cl)c1 (configuration not stated) [Miconazole] + Cc1cc(NS(=O)(=O)c2ccc(N)cc2)no1 [Sulfamethoxazol]
Conditions	Bliss interaction score
B. subtilis 168 [1]	0.0845
S. aureus DSM 20231	0.0319
S. aureus Newman	0.0463
S. pneumoniae D39V [2]	0.0572

fitness, S. pneumoniae D39V [4]
Conditions	first compound 1.073 µg/mL	first compound 2.145 µg/mL	first compound 4.29 µg/mL
partner 1 µg/mL	0.989	≥ 1	0.946
partner 2 µg/mL	0.981	0.998	0.923
partner 4 µg/mL	0.999	0.988	0.924

fitness, S. pneumoniae D39V [4], one replicate
Conditions	first compound 1.25 µg/mL	first compound 2.5 µg/mL	first compound 5 µg/mL
partner 1 µg/mL	0.94	0.966	0.932
partner 2 µg/mL	0.894	0.955	0.908
partner 4 µg/mL	0.892	0.876	0.864

Clc1ccc(COC(Cn2ccnc2)c2ccc(Cl)cc2Cl)c(Cl)c1 (configuration not stated) [Miconazole] + Cc1onc(-c2ccccc2)c1C(=O)N[C@@H]1C(=O)N2[C@@H]1SC(C)(C)[C@@H]2C(=O)O [Oxacillin]
Conditions	Bliss interaction score
B. subtilis 168 [1]	0.0802
S. aureus DSM 20231	0.0539
S. aureus Newman	0.0481
S. pneumoniae D39V [2]	0.0753

fitness, S. pneumoniae D39V [4]
Conditions	first compound 1.073 µg/mL	first compound 1.25 µg/mL	first compound 2.145 µg/mL	first compound 2.5 µg/mL	first compound 4.29 µg/mL	first compound 5 µg/mL
partner 0.01 µg/mL	≥ 1	0.939	≥ 1	0.938	0.928	0.946
partner 0.02 µg/mL	0.977	0.864	0.906	0.874	0.716	0.892
partner 0.04 µg/mL	–	0.363	–	0.359	0.434	0.386

Clc1ccc(COC(Cn2ccnc2)c2ccc(Cl)cc2Cl)c(Cl)c1 (configuration not stated) [Miconazole] + Cn1nnc(-c2ccc(-c3ccc(N4C[C@H](CO)OC4=O)cc3F)cn2)n1 [Tedizolid]
Conditions	Bliss interaction score
B. subtilis 168 [1]	0.0402
S. aureus DSM 20231	0.0592
S. aureus Newman	0.0625
S. pneumoniae D39V [2]	-0.0671

fitness, S. pneumoniae D39V [4]
Conditions	first compound 1.073 µg/mL	first compound 1.25 µg/mL	first compound 2.145 µg/mL	first compound 2.5 µg/mL	first compound 4.29 µg/mL	first compound 5 µg/mL
partner 0.03125 µg/mL	–	0.96	–	0.97	–	0.925
partner 0.0625 µg/mL	–	0.968	–	0.929	–	0.934
partner 0.125 µg/mL	0.872	0.797	0.937	0.797	0.943	0.746
partner 0.25 µg/mL	0.729	–	0.778	–	0.829	–
partner 0.5 µg/mL	0.413	–	0.402	–	0.489	–

Clc1ccc(COC(Cn2ccnc2)c2ccc(Cl)cc2Cl)c(Cl)c1 (configuration not stated) [Miconazole] + O=C1CN(/N=C/c2ccc([N+](=O)[O-])o2)C(=O)N1 [Nitrofurantoin]
Conditions	Bliss interaction score
B. subtilis 168 [1]	-0.125
S. aureus DSM 20231	0.0458
S. aureus Newman	-0.0579
S. pneumoniae D39V [2]	0.091

fitness, S. pneumoniae D39V [4]
Conditions	first compound 1.073 µg/mL	first compound 1.25 µg/mL	first compound 2.145 µg/mL	first compound 2.5 µg/mL	first compound 4.29 µg/mL	first compound 5 µg/mL
partner 1.285 µg/mL	–	0.987	–	0.959	–	0.945
partner 2 µg/mL	0.972	–	≥ 1	–	0.93	–
partner 2.57 µg/mL	–	0.968	–	0.954	–	0.936
partner 4 µg/mL	0.988	–	≥ 1	–	0.949	–
partner 8 µg/mL	0.92	–	0.951	–	0.919	–

S. pneumoniae D39V [4], partner 5.14 µg/mL, one replicate
Conditions	fitness
first compound 1.25 µg/mL	0.897
first compound 2.5 µg/mL	0.848
first compound 5 µg/mL	0.847

Cc1onc(-c2ccccc2)c1C(=O)N[C@@H]1C(=O)N2[C@@H]1SC(C)(C)[C@@H]2C(=O)O [Oxacillin] + CO[C@H]1/C=C/O[C@@]2(C)Oc3c(C)c(O)c4c(O)c(c(/C=N/N5CCN(C)CC5)c(O)c4c3C2=O)NC(=O)/C(C)=C\C=C\[C@H](C)[C@H](O)[C@@H](C)[C@@H](O)[C@@H](C)[C@H](OC(C)=O)[C@@H]1C [Rifampicin]
Conditions	Bliss interaction score
B. subtilis 168 [1]	0.0578
S. aureus DSM 20231	0.0464
S. aureus Newman	0.0684
S. pneumoniae D39V [2]	-0.0851

S. pneumoniae D39V [4], partner 0.025 µg/mL, one replicate
Conditions	fitness
first compound 0.01 µg/mL	0.891
first compound 0.02 µg/mL	0.801
first compound 0.04 µg/mL	0.407

S. pneumoniae D39V [4], partner 0.2 µg/mL
Conditions	fitness
first compound 0.01 µg/mL	0.144
first compound 0.02 µg/mL	0.0871
first compound 0.04 µg/mL	0.143

C[n+]1ccc(-c2cc[n+](C)cc2)cc1 [Paraquat] + CO[C@H]1/C=C/O[C@@]2(C)Oc3c(C)c(O)c4c(O)c(c(/C=N/N5CCN(C)CC5)c(O)c4c3C2=O)NC(=O)/C(C)=C\C=C\[C@H](C)[C@H](O)[C@@H](C)[C@@H](O)[C@@H](C)[C@H](OC(C)=O)[C@@H]1C [Rifampicin]
Conditions	Bliss interaction score
B. subtilis 168 [1]	0.0618
S. aureus DSM 20231	0.0593
S. aureus Newman	0.0217
S. pneumoniae D39V [2]	-0.0393

S. pneumoniae D39V [4], partner 0.025 µg/mL, one replicate
Conditions	fitness
first compound 1.5 µg/mL	0.869
first compound 3 µg/mL	0.833
first compound 6 µg/mL	0.842

fitness, S. pneumoniae D39V [4]
Conditions	first compound 1.5 µg/mL	first compound 3 µg/mL	first compound 6 µg/mL
partner 0.05 µg/mL	–	0.882	0.897
partner 0.2 µg/mL	0.0862	0.102	0.0798

Cn1c2cccc(=O)c-2nc2ccccc21 [Pyocyanin] + CO[C@H]1/C=C/O[C@@]2(C)Oc3c(C)c(O)c4c(O)c(c(/C=N/N5CCN(C)CC5)c(O)c4c3C2=O)NC(=O)/C(C)=C\C=C\[C@H](C)[C@H](O)[C@@H](C)[C@@H](O)[C@@H](C)[C@H](OC(C)=O)[C@@H]1C [Rifampicin]
Conditions	Bliss interaction score
B. subtilis 168 [1]	-0.0612
S. aureus DSM 20231	0.031
S. aureus Newman	0.0295
S. pneumoniae D39V [2]	0.0928

fitness, S. pneumoniae D39V [4], one replicate
Conditions	first compound 0.325 µg/mL	first compound 0.65 µg/mL	first compound 1.3 µg/mL
partner 0.025 µg/mL	0.917	0.942	0.765
partner 0.2 µg/mL	–	–	0.021

fitness, S. pneumoniae D39V [4]
Conditions	first compound 0.325 µg/mL	first compound 0.65 µg/mL
partner 0.05 µg/mL	–	0.885
partner 0.2 µg/mL	0.0407	0.178
